The test system of one assay is FaDu oral cancer cells. Nature of the assay: MTT antiproliferative assay, FaDu. The conditions noted are these: for GI50: Homo sapiens, FaDu, read-out: GI50 for FaDu. Type of assay: cell-based. Here is the method:
(§1) FaDu cell line was cultured in RPMI-1640 medium containing L-glutamine (300 mg/L) and sodium bicarbonate (2 g/L), while Cal27, HEK293 and HFF-1 cell lines were cultured in DMEM medium containing glucose (4.5 g/L), L-glutamine (584 mg/L) and sodium bicarbonate (3.7 g/L). For gene expression and qPCR studies, RNA isolation was performed using Trizol (Thermo). The reagents and the primer sequences employed for the qPCR assays have been described previously ([Chakraborty et al., 2022]).
(§2) The hits derived from the docking study were sourced from either commercial suppliers or pre-existing compounds within our laboratory or were synthesized anew. The FaDu and Cal27 oral cancer cells were treated with the compounds for 72 h at concentrations of 3, 10, 30, and 100 μM. A post-treatment MTT assay was done to evaluate their antiproliferative activity. Table S2 represents the anti-proliferative and enzyme inhibitory activity of the compounds obtained as hits from the structure-based drug design strategy. […] Consequently, 50 μM of all the hit compounds were evaluated for their HK2 enzyme inhibitory activity. 50 μM of compounds were incubated with HK2 protein and the rate of reaction was assessed in kinetic mode (rate of conversion of NAD to NADH). The choice of 50 μM concentration was based primarily on MTT assays and GI50 calculation. The average GI50 values of the hit compounds against less sensitive FaDu cell line was approximately 50 μM. Considering this information, we reasoned that utilizing a concentration equivalent to the average GI50 would allow us to assess the maximum inhibitory effect of the compounds on HK2 enzyme activity. […] The same compounds have been previously reported by our team to have EGFR phosphorylation inhibitory potential and were coded as H2 (compound 14) and H10 (compound 11) ([Chakraborty et al., 2022]). […] Figures 1C,D show the lead compounds H2 and H10 at the active site of HK2 enzyme interacting via H-bonds with the amino acid residues.

In the next assay the test system is Cal27 oral cancer cells. In words: MTT antiproliferative assay, Cal27. Type of assay: cell-based. The conditions noted are these: Homo sapiens, read-out: GI50 for Cal27. Here is the method: as §1, §2
Background: Tetrazolium dyes change colour on reduction, which living cells bring about.

In assay [1] the target is T1, HK2 (Homo sapiens, UniProt P52789).
T1 construct: purchased Abcam ab211114
T1 sequence (P52789 1-917): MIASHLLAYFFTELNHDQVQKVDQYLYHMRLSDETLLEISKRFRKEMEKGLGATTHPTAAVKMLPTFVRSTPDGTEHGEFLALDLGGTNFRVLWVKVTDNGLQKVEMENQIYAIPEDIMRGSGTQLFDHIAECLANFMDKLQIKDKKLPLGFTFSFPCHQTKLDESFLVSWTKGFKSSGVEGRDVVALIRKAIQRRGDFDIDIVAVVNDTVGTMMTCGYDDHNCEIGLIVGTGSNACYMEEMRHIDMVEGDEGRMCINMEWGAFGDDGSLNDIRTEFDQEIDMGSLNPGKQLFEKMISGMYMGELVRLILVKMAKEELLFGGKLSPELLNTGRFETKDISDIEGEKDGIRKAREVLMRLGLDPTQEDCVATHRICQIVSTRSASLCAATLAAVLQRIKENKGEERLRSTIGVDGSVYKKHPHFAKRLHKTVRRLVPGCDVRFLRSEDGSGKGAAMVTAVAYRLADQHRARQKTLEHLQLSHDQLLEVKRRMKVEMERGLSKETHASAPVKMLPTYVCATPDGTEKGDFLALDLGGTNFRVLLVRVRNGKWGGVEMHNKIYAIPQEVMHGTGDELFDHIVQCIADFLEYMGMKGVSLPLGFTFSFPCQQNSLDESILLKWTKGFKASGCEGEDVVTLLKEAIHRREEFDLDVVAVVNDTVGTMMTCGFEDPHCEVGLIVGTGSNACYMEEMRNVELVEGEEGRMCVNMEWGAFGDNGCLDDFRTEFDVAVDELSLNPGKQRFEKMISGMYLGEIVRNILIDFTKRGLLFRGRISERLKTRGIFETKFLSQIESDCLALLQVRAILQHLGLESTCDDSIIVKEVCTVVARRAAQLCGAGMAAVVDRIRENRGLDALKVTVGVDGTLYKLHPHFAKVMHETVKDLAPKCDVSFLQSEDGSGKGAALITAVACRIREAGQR
In words: HK2 enzyme inhibition assay (Abcam kit ab211114). Type of assay: biochemical. The conditions noted are these: read-out: % inhibition of HK2 enzyme activity at 50 µM. The protocol:
The HK2 enzyme inhibition assay was performed using an HK2 inhibitor assay kit (Abcam, ab211114) according to the manufacturer’s instructions. Initially, 50 µM compound concentration was used to perform the enzyme activity inhibition studies, after which IC50 of the top leads were determined.
as §2

Another assay concerns FaDu cells. In words: 2-NBDG glucose uptake assay (flow cytometry), FaDu. Type of assay: cell-based. The note with it: 10 μM and 30 μM, 72 h, vs DMSO control. Here is the method:
(§3) FaDu and Cal27 cells were treated with test compounds (0.2 million cells per treatment) and were incubated for 1 h with 100 μM of 2-NBDG (Invitrogen, N13195), in glucose free medium, washed with ice-cold PBS, and re-suspended in 500 μL of PBS and maintained on ice to perform flow cytometric analyses within 30 min. The mean fluorescent intensity (MFI) readout reflects the amount of fluorescent glucose analog taken up by the cells, providing insight into their glucose uptake capacity. The percent (%) cell population positive for glucose uptake (shown with a right shift of the histogram peaks) were also plotted for both the cell lines. For MMP analysis, cells were incubated with 200 nM of TMRE (Invitrogen, T669) for 30 min. For each measurement, data was collected for 10,000 events using a BD FACS Aria III (Becton Dickinson, San Jose, CA) instrument.
(§4) 2-[N-(7-Nitrobenz-2-oxa-1,3-diaxol-4-yl) amino]-2-deoxyglucose (2-NBDG) uptake into cells happens via glucose transporters and post uptake 2-NBDG gets phosphorylated by hexokinases. Since cancer cells represent higher glycolytic activity, the inhibition of HK2 activity in cancer cells is actively reflected in the inhibition of 2-NBDG uptake ([Hung et al., 2022]; [Li et al., 2022]). […] In this assay, the MFI of intracellular 2-NBDG serves as a quantitative measure of cellular glucose uptake. […] This finding is further supported by the increased % population of 2-NBDG positive cells in Cal27 cells compared to FaDu cells (Figure 3).

For a further assay, the system named is Cal27 cells. In words: 2-NBDG glucose uptake assay (flow cytometry), Cal27. Type of assay: cell-based. The note with it: Cal27, 10 μM and 30 μM, 72 h, vs DMSO control. The protocol:
as §3, §4

Assay [2] has as its target T1, HK2. The conditions noted are these: ref Liu and Liu, 2022; read-out: IC50 as reported against HK2; cited from earlier work.

The values that follow come from PMC10961359, “Targeting hexokinase 2 for oral cancer therapy: structure-based design and validation of lead compounds” (Frontiers in Pharmacology, 2024).

One may read the GI50 as the concentration at which growth is held to half of that of the control. Usually inhibition stands for the relative decrease from the control value, in per cent. Broadly, the IC50 is the midpoint of a concentration-inhibition curve.

Entries after “also recorded” stand apart in the source; their conditions may differ. Like-named read-outs stand apart in the source and are kept apart here.

For the compound `O=C(O)C(=O)CBr` [Compound 1, 3-Bromo pyruvic acid], the 50% growth inhibitory concentration (GI50) in the assay with FaDu oral cancer cells (72 h) was determined as 23.9 µM; with Cal27 oral cancer cells (CAL-27, 72 h), 36.4 µM. Besides, on HK2 [1], the inhibition at 50 µM was 88.2%. Besides, the “2-NBDG MFI” value with FaDu cells and in the assay on Cal27 cells was “significant reduction” in each case. Besides, the 50% inhibitory concentration (IC50) at HK2 [2] was less than 5 µM.
Take `O=CC[C@@H](O)[C@H](O)[C@H](O)CO` [Compound 15, 2-Deoxy Glucose]: the GI50 in the assay with FaDu oral cancer cells (MTT, 72 h treatment, mean ± SEM) is more than 100 µM; in the assay with Cal27 oral cancer cells (CAL-27, MTT, 72 h treatment, mean ± SEM) it was 77.6 µM. The “GI50 for FaDu” value in the assay with FaDu oral cancer cells (MTT, 72 h treatment, mean ± SEM, listed as 2-DG) is “no efficacy; also recorded: limited efficacy”. The “2-NBDG MFI” value in the assay with FaDu cells and in the assay with Cal27 cells was “significant reduction” each time.
